Experimental data published in PubChem BioAssay AID1963975 (Molecular Pharmacology Branch, DTP, NCI, 2024).
One block for each compound: values may come before it.

Tested on: 624824-186-R-J2-PDC multicell spheroids, viability
Test: Anticancer human tumor 624824-186-R-J2-PDC patient-derived colon adenocarcinoma cell line growth inhibition [PI3K]
Details: for IC50: curve of first compound; for viability, T/C: stronger effect = lower value
Procedure, shortened: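 Viability of mixed-cell spheroids was determined after exposure to pairwise combinations, one partner being inavolisib, alpelisib, duvelisib or copanlisib. Highest tested concentration matched clinical Cmax where known and 10 microM where not, descending in half-log steps.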

[1] = second compound 0.00316 µM, first compound 0.0316 µM
[2] = second compound 0.00316 µM, first compound 0.1 µM
[3] = second compound 0.00316 µM, first compound 0.316 µM
[4] = second compound 0.00316 µM, first compound 1 µM
[5] = second compound 0.00316 µM, first compound 3.16 µM
[6] = second compound 0.00316 µM, first compound 10 µM
[7] = second compound 0.01 µM, first compound 0.0316 µM
[8] = second compound 0.01 µM, first compound 0.1 µM
[9] = second compound 0.01 µM, first compound 0.316 µM
[10] = second compound 0.01 µM, first compound 1 µM
[11] = second compound 0.01 µM, first compound 3.16 µM
[12] = second compound 0.01 µM, first compound 10 µM
[13] = second compound 0.0316 µM, first compound 0.0316 µM
[14] = second compound 0.0316 µM, first compound 0.1 µM
[15] = second compound 0.0316 µM, first compound 0.316 µM
[16] = second compound 0.0316 µM, first compound 1 µM
[17] = second compound 0.0316 µM, first compound 3.16 µM
[18] = second compound 0.0316 µM, first compound 10 µM
[19] = second compound 0.1 µM, first compound 0.0316 µM
[20] = second compound 0.1 µM, first compound 0.1 µM
[21] = second compound 0.1 µM, first compound 0.316 µM
[22] = second compound 0.1 µM, first compound 1 µM
[23] = second compound 0.1 µM, first compound 3.16 µM
[24] = second compound 0.1 µM, first compound 10 µM
[25] = second compound 0.316 µM, first compound 0.0316 µM
[26] = second compound 0.316 µM, first compound 0.1 µM
[27] = second compound 0.316 µM, first compound 0.316 µM
[28] = second compound 0.316 µM, first compound 1 µM
[29] = second compound 0.316 µM, first compound 3.16 µM
[30] = second compound 0.316 µM, first compound 10 µM
[31] = second compound 1 µM, first compound 0.0316 µM
[32] = second compound 1 µM, first compound 0.1 µM
[33] = second compound 1 µM, first compound 0.316 µM
[34] = second compound 1 µM, first compound 1 µM
[35] = second compound 1 µM, first compound 3.16 µM
[36] = second compound 1 µM, first compound 10 µM
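Further: spheroids exposed to agents for 7 days before viability read.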
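Wherever viability, T/C is given: 100% = DMSO vehicle treated spheroids.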

- IC50 (second compound 0.00316 µM): > 10 µM
- IC50 (second compound 0.01 µM): > 10 µM
- IC50 (second compound 0.0316 µM): > 10 µM
- IC50 (second compound 0.1 µM): 6.81 µM
- IC50 (second compound 0.316 µM): 4.68 µM
- IC50 (second compound 1 µM): 4.7 µM
SMILES: CC1(C)CCC(CN2CCN(c3ccc(C(=O)NS(=O)(=O)c4ccc(NCC5CCOCC5)c([N+](=O)[O-])c4)c(Oc4cnc5[nH]ccc5c4)c3)CC2)=C(c2ccc(Cl)cc2)C1 + COc1c(OCCCN2CCOCC2)ccc2c3n(c(=NC(=O)c4cnc(N)nc4)nc12)CCN3
- viability, T/C [1]: 78.7%
- viability, T/C [2]: 82.4%
- viability, T/C [3]: 81.6%
- viability, T/C [4]: 98%
- viability, T/C [5]: 70.5%
- viability, T/C [6]: 61%
- viability, T/C [7]: 99%
- viability, T/C [8]: 83.5%
- viability, T/C [9]: 83.1%
- viability, T/C [10]: 94.9%
- viability, T/C [11]: 78.2%
- viability, T/C [12]: 57.5%
- viability, T/C [13]: 84.3%
- viability, T/C [14]: 90.5%
- viability, T/C [15]: 82.6%
- viability, T/C [16]: 90.7%
- viability, T/C [17]: 78.7%
- viability, T/C [18]: 50.2%
- viability, T/C [19]: 69%
- viability, T/C [20]: 76.8%
- viability, T/C [21]: 84.8%
- viability, T/C [22]: 78.4%
- viability, T/C [23]: 73.1%
- viability, T/C [24]: 38.2%
- viability, T/C [25]: 60%
- viability, T/C [26]: 65.7%
- viability, T/C [27]: 72.1%
- viability, T/C [28]: 67.9%
- viability, T/C [29]: 60.5%
- viability, T/C [30]: 28.2%
- viability, T/C [31]: 64.7%
- viability, T/C [32]: 62.3%
- viability, T/C [33]: 63.2%
- viability, T/C [34]: 61.4%
- viability, T/C [35]: 64.7%
- viability, T/C [36]: 24.8%

- IC50 (second compound 0.00316 µM): 9.49 µM
- IC50 (second compound 0.01 µM): 7.33 µM
- IC50 (second compound 0.0316 µM): 2.2 µM
- IC50 (second compound 0.1 µM): 1.76 µM
- IC50 (second compound 0.316 µM): 0.178 µM
- IC50 (second compound 1 µM): 0.111 µM
SMILES: CCCS(=O)(=O)Nc1ccc(F)c(C(=O)c2c[nH]c3ncc(-c4ccc(Cl)cc4)cc23)c1F + COc1c(OCCCN2CCOCC2)ccc2c3n(c(=NC(=O)c4cnc(N)nc4)nc12)CCN3
- viability, T/C [1]: 84.7%
- viability, T/C [2]: 95.8%
- viability, T/C [3]: 79.4%
- viability, T/C [4]: 111%
- viability, T/C [5]: 123%
- viability, T/C [6]: 47.7%
- viability, T/C [7]: 81.5%
- viability, T/C [8]: 95.2%
- viability, T/C [9]: 82.3%
- viability, T/C [10]: 87.4%
- viability, T/C [11]: 82.1%
- viability, T/C [12]: 38%
- viability, T/C [13]: 84.2%
- viability, T/C [14]: 64.8%
- viability, T/C [15]: 61.6%
- viability, T/C [16]: 55.6%
- viability, T/C [17]: 60.6%
- viability, T/C [18]: 30.2%
- viability, T/C [19]: 65.3%
- viability, T/C [20]: 54.4%
- viability, T/C [21]: 50%
- viability, T/C [22]: 48.1%
- viability, T/C [23]: 49.8%
- viability, T/C [24]: 21.4%
- viability, T/C [25]: 64.3%
- viability, T/C [26]: 51%
- viability, T/C [27]: 42.8%
- viability, T/C [28]: 37.9%
- viability, T/C [29]: 39.5%
- viability, T/C [30]: 18.6%
- viability, T/C [31]: 56.5%
- viability, T/C [32]: 50.1%
- viability, T/C [33]: 44.2%
- viability, T/C [34]: 35.4%
- viability, T/C [35]: 35.1%
- viability, T/C [36]: 20.6%

- IC50 (second compound 0.00316 µM): > 10 µM
- IC50 (second compound 0.01 µM): > 10 µM
- IC50 (second compound 0.0316 µM): > 10 µM
- IC50 (second compound 0.1 µM): 1.02 µM
- IC50 (second compound 0.316 µM): 0.505 µM
- IC50 (second compound 1 µM): 0.511 µM
SMILES: C[C@@H](NC(=O)c1ncnc(N)c1Cl)c1ncc(C(=O)Nc2cc(C(F)(F)F)c(Cl)cn2)s1 + COc1c(OCCCN2CCOCC2)ccc2c3n(c(=NC(=O)c4cnc(N)nc4)nc12)CCN3
- viability, T/C [1]: 106%
- viability, T/C [2]: 112%
- viability, T/C [3]: 93.5%
- viability, T/C [4]: 84.4%
- viability, T/C [5]: 62.2%
- viability, T/C [6]: 65.2%
- viability, T/C [7]: 95.5%
- viability, T/C [8]: 119%
- viability, T/C [9]: 106%
- viability, T/C [10]: 70.1%
- viability, T/C [11]: 61.6%
- viability, T/C [12]: 62.6%
- viability, T/C [13]: 91.3%
- viability, T/C [14]: 93%
- viability, T/C [15]: 88.9%
- viability, T/C [16]: 63.9%
- viability, T/C [17]: 63.4%
- viability, T/C [18]: 48%
- viability, T/C [19]: 88.7%
- viability, T/C [20]: 73.9%
- viability, T/C [21]: 64.6%
- viability, T/C [22]: 50.2%
- viability, T/C [23]: 38.7%
- viability, T/C [24]: 33.1%
- viability, T/C [25]: 77.2%
- viability, T/C [26]: 59.9%
- viability, T/C [27]: 55.7%
- viability, T/C [28]: 46.4%
- viability, T/C [29]: 33.8%
- viability, T/C [30]: 28.9%
- viability, T/C [31]: 62.4%
- viability, T/C [32]: 63.4%
- viability, T/C [33]: 52.1%
- viability, T/C [34]: 42.5%
- viability, T/C [35]: 39.2%
- viability, T/C [36]: 26.1%
